The source of these data is patent US20120283096A1, “AGENT FOR IMPROVING PLANT GROWTH, SEEDS, AND METHOD FOR IMPROVING PLANT GROWTH” (Incorporated Administrative Agency National Agricu lture …, priority 2010, published 2012).

Read-outs that look alike come from different tables or passages of the source.

Series [1] concerns paddy rice. In words: Seedling establishment of paddy seeds soaked in solutions of readily-soluble molybdenum substances (Example 2-2, FIGS. 8 and 13). The class given is in vivo. As to the method: The examination of the proportion of seedling establishment was carried out under the same conditions as the examination whose results are shown in FIG. 8, except for the molybdenum concentration and the duration of soaking.

In series [2] the test system is decay of paddy seeds. Nature of the series: Decay-inhibiting effect in tank farming without soil (Example 3). To be noted: for Soaking: Inhibition of decay, Concentration of Molybdenum in Solution: paddy seeds left soaked two weeks in the solution at 30° C., no soil, water did not rot, no rotten smell; for Ten-minute soaking: Inhibition of decay, Concentration of Molybdenum in Solution: seeds soaked ten minutes in the solution, then two weeks in water at 30° C.; for Inhibition of decay, Amount of molybdenum or tungsten added to seed: seeds covered with substance, soaked two weeks in water at 30° C. As for the experimental part:
(§1) The decay-inhibiting effect of molybdenum-containing substances in tank farming without soil was examined.
(§2) The possibility of growth and the inhibition of decay were determined in the same manner as above.

The subject of series [3] is paddy seeds. Nature of the series: Possibility of growth of paddy seeds in tank farming without soil (Example 3). As to the method: as §1, §2
The conditions of series [4]: in water, powder, cited from earlier work.
The subject of series [5] is sulfide ion generation. Nature of the series: Inhibition of sulfide ion generation, paddy seeds covered with slightly-soluble substances (Example 2-3, FIG. 9). The following applies: approximately 0.1 mmol/g (per dry seeds) in terms of molybdenum or tungsten. An excerpt:
The water on slightly germinated seeds was lightly wiped off, and immediately after that, the seeds were put with (lightly covered with) various amounts of the slightly-soluble substances shown in Table 1. […] The number of days for which sulfide ion generation was inhibited and the proportion of seedling establishment were examined.

For series [6], the system named is sulfide ions. Nature of the series: Inhibiting effect of molybdenum added to soil on sulfide ions (Example 1-3, FIG. 4). To be noted: supernatant after shaking soil, 30° C., two weeks after seeding. As for the experimental part:
An inhibiting effect of a molybdenum-containing substance on sulfide ions was examined in relation to the degrees of generation of ferric sulfide in soil and the concentrations of molybdenum in soil solutions, and the results are shown in FIG. 4. The results shown in FIG. 4 were obtained from samples obtained in the same manner as in Example 1-2. Since methylene blue decolorizes in a reduced state, methylene blue weighing 0.1% of dry soil was added to each sample of soil so that a reduced state of the soil could be detected. The supernatant liquids obtained after shaking the samples of soil thus adjusted had molybdenum concentrations shown in FIG. 4.

Series [7] has as its system paddy rice. Nature of the series: Seedling establishment of coated paddy seeds in submerged soil containers (Examples 4-1 to 4-4b, FIGS. 11, 14-19c). The class given is in vivo. To be noted: dry seeds, 25 wt % calcium peroxide alone at 0.1 or less time the weight of dry seed, 30° C., FIG. 19c. As to the method:
The germinated paddy seeds were soaked for one minute in a tenfold diluted solution of a commercially available laundry starch (manufactured by Rocket Soap Co., Ltd.; My Laundry Starch) containing approximately a little less than 10% by weight of polyvinyl alcohol, centrifuged at 1000 rpm for removal of the extra solution, and, immediately after that, lightly covered with different amounts of ammonium molybdophosphate, whereby seeds with different amounts of ammonium molybdophosphate were prepared.
It should also be noted that in each of FIGS. 14 through 15b, the horizontal axis represents the number of moles (mmol) of molybdenum or tungsten that adhered per gram of dry seed. In each of FIGS. 14 through 15b, the dots correspond to the numbers of moles of 0, 0.02, 0.05, 0.1, 0.2, 0.5, 1, and 2 mmol, starting from the left.
It should be noted that in each of FIGS. 16 through 18, the horizontal axis represents the number of moles (mmol) of molybdenum that adhered per gram of dry seed. In each of FIGS. 16 through 18, the dots correspond to the numbers of moles of 0, 0.02, 0.05, 0.1, 0.2, 0.5, 1, and 2 mmol, starting from the left.
It should be noted that in FIG. 19a, the horizontal axis represents the number of moles (mmol) of molybdenum that adhered per gram of dry seed. In FIG. 19a, the dots correspond to the numbers of moles of 0, 0.02, 0.05, 0.1, 0.2, 0.5, 1, and 2 mmol, starting from the left.
The resulting seeds were allowed to spend time in a sufficiently wet condition so that the iron rusted, and then allowed to further spend overnight. […] Six containers were allotted for each condition, and the proportion of seedling establishment and the standard error were examined. It should be noted that in FIG. 19b, the horizontal axis represents the number of moles (mmol) of molybdenum that adhered per gram of dry seed. In FIG. 19b, the dots correspond to the numbers of moles of 0, 0.02, 0.05, 0.1, 0.2, 0.5, 1, and 2 mmol, starting from the left.
Six containers were allotted for each condition, and the proportion of seedling establishment and the standard error were examined. It should be noted that in FIG. 19c, the horizontal axis represents the actual weight ratios of 25 wt % calcium peroxide that adhered with respect to the weight of dry seed. In FIG. 19c, the dots correspond to the actual weight ratios of 25 wt % calcium peroxide of 0, 0.01, 0.02, 0.05, 0.1, 0.2, 0.5, and 1 time, starting from the left.

[8] abbreviates: 3 M molybdenum solution, one-minute soaking, FIG. 13.
The mark [9] stands for this setting: seeds covered with substance, soaked two weeks in water at 30° C.
The mark [10] stands for this setting: paddy seeds left soaked two weeks in the solution at 30° C., no soil, concentration at which sheath leaf elongation was observed.
Where [11] appears, read: seeds soaked ten minutes in the solution, then two weeks in water at 30° C.

In the case of “12-moblybdo(VI)phosphoric acid n-hydrate [Molybdophosphoric acid]”, in series [1] (setting [8]), the “proportion of seedling establishment” value is recorded as “improvement in proportion of seedling establishment”. Moreover, in series [2], the “Soaking: Inhibition of decay, Concentration of Molybdenum in Solution” value is on record as less than 0.02 M and the “Ten-minute soaking: Inhibition of decay, Concentration of Molybdenum in Solution” value (shortened to “Ten-minute soaking: Inhibition of decay”) amounted to 0.1 M.
Consider `[H+].[H+].[NH4+].[NH4+].[NH4+].[NH4+].[NH4+].[NH4+].[NH4+].[NH4+].[NH4+].[NH4+].[O]=[W](=[O])([O-])[O-].[O]=[W](=[O])([O-])[O-].[O]=[W](=[O])([O-])[O-].[O]=[W](=[O])([O-])[O-].[O]=[W](=[O])([O-])[O-].[O]=[W](=[O])([O-])[O-].[O]=[W](=[O])=[O].[O]=[W](=[O])=[O].[O]=[W](=[O])=[O].[O]=[W](=[O])=[O].[O]=[W](=[O])=[O].[O]=[W](=[O])=[O]` [Ammonium paratungstate, Ammonium tungstate parapentahydrate], for which, in series [3] (setting [9]), the “Possibility of growth, Amount of molybdenum or tungsten added to seed” value is 0.3 mmol/g. For the same compound, in series [2], the “Inhibition of decay, Amount of molybdenum or tungsten added to seed” value (shortened to “Inhibition of decay, Amount … to seed”) was less than 0.3 mmol/g. For the same compound, the Water solubility entry in series [4] is given as “Slightly soluble (has a percentage of solubility of 10% by weight or lower with respect to water)”.
For `[Ca+2].[O]=[Mo](=[O])([O-])[O-]` [Calcium molybdate], the “Possibility of growth, Amount of molybdenum or tungsten added to seed” value in series [3] (setting [9]) was found to be 1 mmol/g. Moreover, the “Inhibition of decay, Amount … to seed” value in series [2] was determined as 0.3 mmol/g.
Take `[Mg+2].[O]=[Mo](=[O])([O-])[O-]` [Magnesium molybdate]: the Water solubility entry is “Slightly soluble (has a percentage of solubility of 10% by weight or lower with respect to water)” in series [4] and “slightly soluble” in series [4] (listed as magnesium molybdate).
On to `[O]=[Mo](=[O])([OH])[OH]` [Molybdic acid], for which the “number of days for which sulfide ion generation was inhibited” value in series [5] is reported as “fourteen”. Moreover, the Possibility of growth, Amount of molybdenum or tungsten added to seed in series [3] (in vivo) was more than 2 mmol/g. Also, the “Inhibition of decay, Amount … to seed” value in series [2] is less than 0.02 mmol/g. Besides, the Water solubility result was “Slightly soluble (has a percentage of solubility of 10% by weight or lower with respect to water)” in series [4] and “slightly soluble” in series [4] (listed as molybdic acid).
For the compound `[K+].[K+].[O]=[Mo](=[O])([O-])[O-]` [Potassium molybdate], in series [6], the “molybdenum concentration at which sulfide ions were effectively inhibited” value is on record as not below 0.2 mM and the “molybdenum concentration up to which black circles were observed in the soil” value is not above 0.06 mM. Moreover, the “Soaking: Possibility of growth, Concentration of Molybdenum in Solution” value in series [3] (setting [10]) is reported as 0.02 M. The “Ten-minute soaking: Possibility of growth, Concentration of Molybdenum in Solution” value in series [3] (setting [11]) is on record as 1< M. In series [2], the “Soaking: Inhibition of decay, Concentration of Molybdenum in Solution” value is reported as 0.3 M and the “Ten-minute soaking: Inhibition of decay” value was 0.5 M. Further, the Water solubility result in series [4] is “Readily soluble”. Further, in series [4] (listed as potassium molybdate), the Water solubility entry was “readily soluble”.
In the case of `O.O.[Na+].[Na+].[O]=[Mo](=[O])([O-])[O-]` [Sodium molybdate, Sodium molybdate dihydrate], in series [3] (setting [10]), the “Soaking: Possibility of growth, Concentration of Molybdenum in Solution” value worked out at 0.03 M. In addition, the “Ten-minute soaking: Possibility of growth, Concentration of Molybdenum in Solution” value in series [3] (setting [11]) is 1< M. Moreover, in series [2], the “Soaking: Inhibition of decay, Concentration of Molybdenum in Solution” value is on record as 0.1 M and the “Ten-minute soaking: Inhibition of decay” value is 0.3 M. Also, the Water solubility entry in series [4] (dihydrate) is recorded as “Readily soluble”. Also, the Water solubility entry in series [4] (listed as sodium molybdate, dihydrate) is “readily soluble”.
For the compound `[O]=[W](=[O])=[O]` [Tungsten oxide, Tungsten oxide (VI)], the “number of days for which sulfide ion generation was inhibited” value in series [5] was “fourteen”. The Possibility of growth, Amount of molybdenum or tungsten added to seed in series [3] (in vivo) was more than 1 mmol/g. Further, the “Inhibition of decay, Amount … to seed” value in series [2] is on record as 1< mmol g^−1. Also, the Water solubility entry in series [4] is reported as “Slightly soluble (has a percentage of solubility of 10% by weight or lower with respect to water)”.
`[O]=[W](=[O])([OH])[OH]` [Tungstic acid] displayed a Possibility of growth, Amount of molybdenum or tungsten added to seed in series [3] (in vivo) of more than 1 mmol/g. Besides, the “Inhibition of decay, Amount … to seed” value in series [2] is given as 1< mmol g^−1. Further, the Water solubility entry in series [4] is reported as “Slightly soluble (has a percentage of solubility of 10% by weight or lower with respect to water)”.
Turning to `[Ca+2].[O-][O-]` [calcium peroxide, reference compound], the “proportion of seedling establishment” value in series [7] is listed as not above 20%.
Regarding Ammonium molybdate tetrahydrate, in series [2], the “Soaking: Inhibition of decay, Concentration of Molybdenum in Solution” value is less than 0.02 M and the “Ten-minute soaking: Inhibition of decay” value was found to be 0.1 M.
“Ammonium phosphotungstate trihydrate [Ammonium tungstophosphate]”: in series [3] (in vivo), the Possibility of growth, Amount of molybdenum or tungsten added to seed is more than 1 mmol/g. Further, the “Inhibition of decay, Amount … to seed” value in series [2] is 1< mmol g^−1.
Take “Potassium phosphomolybdate [Potassium molybdophosphate]”: the Water solubility entry in series [4] was “Slightly soluble (has a percentage of solubility of 10% by weight or lower with respect to water)”; in series [4] (listed as potassium molybdophosphate), “slightly soluble”.
Take “Silicomolybdic acid n-hydrate [Molybdosilicic acid]”: the “proportion of seedling establishment” value in series [1] (setting [8]) is listed as “improvement in proportion of seedling establishment”. Besides, the Water solubility result is on record as “Readily soluble” in series [4] and “readily soluble” in series [4] (listed as molybdosilicic acid).
For “Sodium phosphomolybdate n-hydrate [Sodium molybdophosphate]”, in series [1] (ten-minute soaking, FIG. 8), the “molybdenum concentration of the soaking solution at which proportion of seedling establishment improved” value was “approximately 1 M”. Moreover, in series [1] (ten-minute soaking, soaking solution 2 M molybdenum), the “proportion of seedling establishment” value is recorded as “decrease in proportion of seedling establishment”. Moreover, in series [3] (in vivo), the “Soaking: Possibility of growth, Concentration of Molybdenum in Solution” value is less than 0.02 M and the Ten-minute soaking: Possibility of growth, Concentration of Molybdenum in Solution is more than 1 M. Also, in series [2], the “Soaking: Inhibition of decay, Concentration of Molybdenum in Solution” value is given as less than 0.02 M and the “Ten-minute soaking: Inhibition of decay” value was 0.1 M. Besides, in series [4], the Water solubility result is “Readily soluble”. Further, the Water solubility result in series [4] (listed as sodium molybdophosphate) was “readily soluble”.
